Laboratory results: patent publication US20260327263A1, “Anti-Bacterial Peptides” (priority 2023, published 2026)
Entries after “also recorded” stand apart in the source; their conditions may differ. Where no end group is shown, it is not given here.

Tests used:
[1] = system: Pseudomonas aeruginosa PA CRM-9027; test: Broth microdilution, PA CRM-9027 (ear-eye infections); assay type: cell-based, Pseudomonas aeruginosa (CRM-9027); details: PA CRM-9027
Method: Bacteria strains involved in lung infection in cystic fibrosis patients (PA-BAA 2110) and ear-eye infections (PA-CRM 9027) are treated with exemplary variant peptides, such as E1AM2 and Q19L.
Examination of the potency of modified short peptides against PA and SA strains was performed by using the broth microdilution protocol from the Clinical and Laboratory Standards Institute (CLSI) guidelines (CLSI 2012) as described. Briefly, five freshly plated bacteria colonies were grown in cation adjusted MH2 broth (BD Biosciences) in a shaker incubator at 37° C., 220 RPM. Cells were grown to an optical density (OD600) of ~0.2 measured using a Microplate Spectrophotometer (Molecular Devices Spectra Max Plus). 100 μL of microbial culture containing ~5×10^5 CFU/mL of bacteria in the respective broths were introduced into each well containing 100 μL of peptides and incubated overnight at 37° C. Next, to check the bactericidal effects, 100 μL from each well was transferred and spread on sterile MH2 agar plates. The plates were incubated overnight at 37° C. and the number of colonies forming units (CFU) were calculated the following day. Readings of bacteria grown in media without any treatments were normalized to 100% as media control. For the mixed infection study, three freshly plated bacteria colonies each from PA, SA and ST plates were grown together in cation adjusted MH2 broth and proceeded as described above.

[2] = system: Pseudomonas aeruginosa (PA); test: Murine excisional wound infection model (PA); assay type: in vivo, mouse infected with Pseudomonas aeruginosa; details: mouse; 1x MBC (6.25 μM), 24 h treatment, vs PBS; p<0.05
Method: Excisional wounds in mice are infected with Pseudomonas aeruginosa (PA) for 24 hrs followed by 24 hrs of treatment with E1AM2 or PBS. Each circle represents a single mouse. Statistical analysis was performed by the two-tailed t-test using GraphPad, *p<0.05.
Excisional wounds infected with PA for 24 hours being treated for 24 hours with the E1AM2 V8LQ19L hydrogel at its 1X MBC concentration, compared with hydrogel-only treatment in a mouse model. […] Each circle in the graph represents one mouse. Statistical significance was determined using a t-test, with *p<0.05. The data are presented as colony-forming unit counts presented as means±SEM. […] Collectively, the E1AM2 V8LQ19L peptide showcases unique functionality, combining antibacterial effectiveness and biocompatibility for dermal applications.
The murine wound infection model was carried out as described in 4 with minor modifications. Before infection, PA strain was diluted to an OD ~0.5, and normalized to 1-3×10^7 CFU/ml. A 6 mm biopsy punch (Integra Miltex, New York, USA) was used to create a full-thickness wound, and an inoculum of ~10^5 CFU of the bacteria in a 5 μl volume was applied. The wound was sealed with a Finn chamber on a Scanpor tape (Smart Practice, Phoenix, AZ, USA), and the chamber was fixed to the skin via Tegaderm patch (3M™, Minnesota, USA). […]

[3] = system: human keratinocytes (HaCaT); test: Cell proliferation assay, HaCaT keratinocytes; assay type: cell-based
Method: Wound closure was compared with the untreated samples (circle, red highlight). For improved clarity, error bars have been omitted from this representation. […] Each value is the mean±SD (n=3). Statistical significance was assessed using ANOVA for multiple comparisons (Dunnett's multiple comparisons test). **** p<0.0001, *** p<0.001, ** p<0.01, *p<0.05, ns denotes nonsignificance, p >0.05.
CyQUANT™ Direct Cell Proliferation Assay (ThermoFisher Scientific, Catalogue) was performed as per manufacturer's instructions to determine the safety of the peptides to human keratinocytes. […] The fluorescence intensity and number of stained cells were determined using the LionHeart FX Automated Microscope (BioTek, VT, USA).

[4] = Hemolysis assay; assay type: cell-based, human; details: human, red blood cells; at respective MIC/MBC concentrations; melittin 3.125 μM = 100%
Method: The hemolytic score of the peptide variants and pexiganan (SEQ ID NO: 54) are compared to a strong hemolytic peptide, melittin 12 as a control. […] The minimum peptide concentration corresponding to 10% hemolysis (minimal hemolysis concentration, HC) of E1AM2=50 μM, V8LQ19L=12.5 μM, V8LQ19L C-2=3.125 μM, and pexiganan=12.5 μM respectively. Readings of the melittin at 3.125 μM were normalised to 100%.
Examination of hemolytic activity of ultra-short peptides was performed by isolating the red blood cells (RBCs) from human blood samples by centrifugation (1000 g, 4° C., 10 min) and resuspension in 27 mL PBS. This washing step was repeated four times before the RBCs were diluted to a 10% (v/v) suspension. […] Hemolytic properties of E1AM2 and pexiganan were evaluated with melittin used as a positive control, and PBS as a negative control. The plates were incubated at 37° C., for 30 min and then centrifuged (1258 g, 4° C., 6 min). 75 μL of supernatant were transferred into a flat-bottom clear 96-well plate and the OD576 nm was read. Readings of the melittin sample at 3.125 μM were normalized to 100%.

[5] = system: bacteria; test: Comparison of lead peptide to standard of care (Table 16)
[6] = system: bacteria; test: Comparison of wild-type peptide E1A to V8LQ19L (Table 14)
Description: Active peptide sequences based on ENO3 exerting significant bactericidal antibiofilm properties, and relevant to chronic wound healing are previously disclosed. The previously disclosed antimicrobial peptides (AMPs) are longer (>22-residues) in length, which would be more costly in production.

Row | Substance | MBC [1] | MIC [1] | PA infection at wound site (CFU) [2] | Cytotoxicity at high concentration (100 μM) ([3]; 100 μM, cell line not named in Table 15) | cytotoxicity to HaCaT ([3]; 24 h, up to highest tested concentrations (peptide), 3% (H2O2)) | hemolysis at 0.5 h [4] | AMR Prevention [5] | Negligible Cytotoxicity [5] | No Allergic/Adverse Reactions [5] | Targeted bacteria-specific eradication [5] | Wound Healing Support [5] | Antibacterial Efficacy ([5]; Broad- (spectrum continues on next line)) | Cationicity [6] | Mechanism of killing bacteria [6] | MIC/MBC ([6]; bacteria not named in Table 14)
1 | E1AM2: untagged (E1AM2), KKLLKKWVKLSKKALKLAQSL | 3.125 µM | 3.125 µM | effective reduction of PA infection; also recorded: significant bacterial clearance at the wound site | – | – | – | – | – | – | – | – | – | – | – | –
2 | KKLLKKWLKLSKKALKLALSL-NH2 [V8LQ19L] | – | – | – | Non-cytotoxic | noncytotoxic | ~0% | Yes | Yes | Yes | Yes | Yes | Broad- | Cationic (bacterial membrane | Membrane disintegration | 1.56 µM
